Data on 18 compounds can be found in patent publication US20260334439A1, “BCAT2 INHIBITORS” (Agios Pharmaceuticals, Inc., priority 2023, published 2026).

SMILES strings stand for the structures.

The target in assay [1] is T1, BCAT2 (Homo sapiens, UniProt O15382).
T1 sequence (O15382 28-392): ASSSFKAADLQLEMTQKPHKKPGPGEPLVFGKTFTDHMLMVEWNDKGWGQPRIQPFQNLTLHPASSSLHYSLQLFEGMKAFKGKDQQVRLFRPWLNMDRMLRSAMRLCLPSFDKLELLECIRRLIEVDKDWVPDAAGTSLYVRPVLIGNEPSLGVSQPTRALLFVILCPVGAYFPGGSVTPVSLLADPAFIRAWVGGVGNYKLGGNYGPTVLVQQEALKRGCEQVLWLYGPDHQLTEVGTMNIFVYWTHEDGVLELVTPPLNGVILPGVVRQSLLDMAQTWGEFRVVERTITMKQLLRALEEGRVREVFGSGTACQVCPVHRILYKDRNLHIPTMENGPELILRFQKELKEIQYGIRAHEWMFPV
The experiment in a line: BCAT2 in vitro enzyme inhibition assay (hBCAT2, glutamate dehydrogenase/diaphorase/resazurin coupled fluorescence read). The note with it: hBCAT2, 1 h preincubation at 25° C., one hour reaction; average where tested multiple times. It is filed as biochemical. Put shortly: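 Coupled GDH/diaphorase/resazurin fluorescence (Ex 540/Em 590) read after 1 h reaction at 25 °C, SDS-stopped; enzyme (0.33 μg/mL in mix) first preincubated 1 h with compound, 10-point 3-fold series from 100 μM final, Tris pH 8.0 buffer with NaCl, BSA; technical duplicates, averaged across tests.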
In general terms: Alamar Blue is a resazurin reagent that responds to reducing activity.

The target in assay [2] is T1, BCAT2. The experiment in a line: BCAT2 cell inhibition using engineered A549 cells (MUT KO, BCAT1 KO; 13C6-KMV formation by LC-MS/MS). It is filed as cell-based. Further details: expressed endogenous BCAT2; endogenous in cells; host or cells: A549 cells, MUT knockout and BCAT1 knockout. Put shortly:
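Medium 13C6-KMV formation is read by LC-MS/MS after PFBHA derivatization with d8-KMV internal standard. Cells are CRISPR MUT/BCAT1 double-knockout A549 expressing endogenous BCAT2, given compound 15 min before labelled isoleucine (800 uM, added 1:1) for 24 h. CTG viability run in parallel; replicates averaged.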

Where [3] appears, read: read-out: BCAT2 Cell Inhibition (IC50), engineered A549 cells, 24 hours, 13C6-KMV in media, average where tested multiple times.

By IC50 is commonly meant the concentration that inhibits the measured activity by half. As for `N#Cc1ccccc1-c1nc2ccc(-c3ncccn3)cc2n1[C@@H]1CCC[C@H](N2Cc3ccc(F)cc3C2=O)C1` [Example 239, 2-(1-((1R,3S)-3-(6-fluoro-1-oxoisoindolin-2-yl)cyclohexyl)-6-(pyrimidin-2-yl)-1H-benzo[d]imidazol-2-yl)benzonitrile], the IC50 in assay [1] and in assay [2] was less than 100 nM each time.

On to `CN1C[C@H](NC(=O)c2cc(Cl)ccn2)C[C@H](n2c(-c3ncccc3F)nc3cnc(-c4nc[nH]n4)cc32)C1` [Example 132, 4-chloro-N-((3R,5S)-5-(2-(3-fluoropyridin-2-yl)-6-(1H-1,2,4-triazol-3-yl)-1H-imidazo[4,5-c]pyridin-1-yl)-1-methylpiperidin-3-yl)picolinamide], for which the half-inhibitory concentration (IC50) in assay [1] is less than 100 nM; in assay [2] (setting [3]), greater than 1000 nM.

For `Cc1coc(-c2cc3c(cn2)nc(-c2ccccc2C#N)n3[C@@H]2CCC[C@H](NC(=O)c3cc(F)ccc3F)C2)n1` [Example 93, N-((1S,3R)-3-(2-(2-cyanophenyl)-6-(4-methyloxazol-2-yl)-1H-imidazo[4,5-c]pyridin-1-yl)cyclohexyl)-2,5-difluorobenzamide], the IC50 is less than 100 nM in assay [1] and 100 to 500 nM in assay [2].

As for `O=C1c2cccc(F)c2CN1[C@H]1CCC[C@@H](n2c(-c3ccccc3F)nc3cnc(-c4nc[nH]n4)cc32)C1` [Example 177, 4-fluoro-2-((1S,3R)-3-(2-(2-fluorophenyl)-6-(1H-1,2,4-triazol-3-yl)-1H-imidazo[4,5-c]pyridin-1-yl)cyclohexyl)isoindolin-1-one], the IC50 in assay [1] was less than 100 nM; in assay [2], 100 to 500 nM.

For the compound `O=C1c2cc(F)ccc2CN1[C@H]1CCC[C@@H](n2c(-c3ccccc3OCCO)nc3cnc(-c4nc[nH]n4)cc32)C1` [Example 173, 6-fluoro-2-((1S,3R)-3-(2-(2-(2-hydroxyethoxy)phenyl)-6-(1H-1,2,4-triazol-3-yl)-1H-imidazo[4,5-c]pyridin-1-yl)cyclohexyl)isoindolin-1-one], the concentration for half-maximal inhibition (IC50) in assay [1] and in assay [2] was less than 100 nM throughout.

Turning to `O=C(N[C@H]1CCC[C@@H](n2c(-c3ccccc3F)nc3cnc(-c4nc[nH]n4)cc32)C1)c1cc(Cl)cc2ccoc12` [Example 31, 5-chloro-N-((1S,3R)-3-(2-(2-fluorophenyl)-6-(1H-1,2,4-triazol-3-yl)-1H-imidazo[4,5-c]pyridin-1-yl)cyclohexyl)benzofuran-7-carboxamide], the half-inhibitory concentration (IC50) in assay [1] and in assay [2] was less than 100 nM each time.

In the case of `O=C1c2cc(F)ccc2CN1[C@H]1CCC[C@@H](n2c(-c3ccccc3OC(F)F)nc3cnc(-c4nc[nH]n4)cc32)C1` [compound 180], the half-inhibitory concentration (IC50) in assay [1] and in assay [2] was less than 100 nM throughout.

For `COCCOc1ccc(Cl)cc1C(=O)N[C@H]1CCC[C@@H](n2c(-c3ccccc3F)nc3cnc(-n4nccn4)cc32)C1` [Example 72, 5-chloro-N-((1S,3R)-3-(2-(2-fluorophenyl)-6-(2H-1,2,3-triazol-2-yl)-1H-imidazo[4,5-c]pyridin-1-yl)cyclohexyl)-2-(2-methoxyethoxy)benzamide], the concentration for half-maximal inhibition (IC50) in assay [1] and in assay [2] was less than 100 nM each time.

Regarding `O=C1c2cc(F)ccc2OCN1[C@H]1CCC[C@@H](n2c(-c3ccccc3F)nc3cnc(-c4nc[nH]n4)cc32)C1` [Example 204, 6-fluoro-3-((1S,3R)-3-(2-(2-fluorophenyl)-6-(1H-1,2,4-triazol-3-yl)-1H-imidazo[4,5-c]pyridin-1-yl)cyclohexyl)-2,3-dihydro-4H-benzo[e][1,3]oxazin-4-one], the concentration for half-maximal inhibition (IC50) in assay [1] and in assay [2] was less than 100 nM throughout.

`O=C(N[C@H]1CCC[C@@H](n2c(-c3ccccc3F)nc3cnc(-c4nc[nH]n4)cc32)C1)c1cc(Cl)ccc1OC1CCOC1` (stereo partly drawn) [Example 83, 5-chloro-N-((1S,3R)-3-(2-(2-fluorophenyl)-6-(1H-1,2,4-triazol-3-yl)-1H-imidazo[4,5-c]pyridin-1-yl)cyclohexyl)-2-((tetrahydrofuran-3-yl)oxy)benzamide]: the concentration for half-maximal inhibition (IC50) in assay [1] and in assay [2] was less than 100 nM in each case.

In the case of `O=C(N[C@H]1CCC[C@@H](n2c(-c3ccccc3F)nc3cnc(-c4nc[nH]n4)cc32)C1)c1ccc(F)cn1` [Example 19, 5-fluoro-N-((1S,3R)-3-(2-(2-fluorophenyl)-6-(1H-1,2,4-triazol-3-yl)-1H-imidazo[4,5-c]pyridin-1-yl)cyclohexyl)picolinamide], the IC50 was less than 100 nM in assay [1] and 100 to 500 nM in assay [2].

Turning to `O=C1c2cc(Cl)ccc2OCN1[C@H]1CCC[C@@H](n2c(-c3ccccc3F)nc3cnc(-n4nccn4)cc32)[C@@H]1O` [Example 214, 6-chloro-3-((1S,2S,3R)-3-(2-(2-fluorophenyl)-6-(2H-1,2,3-triazol-2-yl)-1H-imidazo[4,5-c]pyridin-1-yl)-2-hydroxycyclohexyl)-2,3-dihydro-4H-benzo[e][1,3]oxazin-4-one], the IC50 in assay [1] and in assay [2] was less than 100 nM throughout.

For `Cc1coc(-c2cc3c(cn2)nc(-c2ccccc2OCCO)n3[C@@H]2CCC[C@H](N3Cc4ccc(F)cc4C3=O)C2)n1` [Example 181, 6-fluoro-2-((1S,3R)-3-(2-(2-(2-hydroxyethoxy)phenyl)-6-(4-methyloxazol-2-yl)-1H-imidazo[4,5-c]pyridin-1-yl)cyclohexyl)isoindolin-1-one], the 50% inhibitory concentration (IC50) in assay [1] and in assay [2] was less than 100 nM each time.

Consider `CN1C[C@@H](NC(=O)c2cc(Cl)ccn2)C[C@@H](n2c(-c3ccccc3F)nc3cnc(-c4nc[nH]n4)cc32)C1` [Example 129, 4-chloro-N-((3S,5R)-5-(2-(2-fluorophenyl)-6-(1H-1,2,4-triazol-3-yl)-1H-imidazo[4,5-c]pyridin-1-yl)-1-methylpiperidin-3-yl)picolinamide], for which the half-inhibitory concentration (IC50) in assay [1] was 100 to 500 nM; in assay [2] (setting [3]), greater than 1000 nM.

Regarding `N#Cc1ccccc1-c1nc2cnc(-c3nc[nH]n3)cc2n1[C@@H]1CCC[C@H](NC(=O)c2cc(F)ccc2F)C1` [Example 81, N-((1S,3R)-3-(2-(2-cyanophenyl)-6-(1H-1,2,4-triazol-3-yl)-1H-imidazo[4,5-c]pyridin-1-yl)cyclohexyl)-2,5-difluorobenzamide], the half-maximal inhibitory concentration (IC50) in assay [1] is less than 100 nM; in assay [2], 100 to 500 nM.

Take `N#Cc1ccc(F)c(C(=O)N[C@H]2CCC[C@@H](n3c(-c4ccccc4F)nc4cnc(-c5nc[nH]n5)cc43)C2)c1` [Example 77, 5-cyano-2-fluoro-N-((1S,3R)-3-(2-(2-fluorophenyl)-6-(1H-1,2,4-triazol-3-yl)-1H-imidazo[4,5-c]pyridin-1-yl)cyclohexyl)benzamide]: the IC50 in assay [1] is less than 100 nM; in assay [2], 100 to 500 nM.

For `COc1ncc(Cl)cc1C(=O)N[C@H]1CCC[C@@H](n2c(-c3ccccc3F)nc3cnc(-c4nc[nH]n4)cc32)C1` [Example 22, 5-chloro-N-((1S,3R)-3-(2-(2-fluorophenyl)-6-(1H-1,2,4-triazol-3-yl)-1H-imidazo[4,5-c]pyridin-1-yl)cyclohexyl)-2-methoxynicotinamide], the IC50 in assay [1] and in assay [2] was less than 100 nM throughout.

Regarding `O=C(N[C@H]1CCC[C@@H](n2c(-c3ccccc3OC(F)F)nc3cnc(-c4nc[nH]n4)cc32)C1)c1cc(Cl)ccc1O` [compound 69], the 50% inhibitory concentration (IC50) in assay [1] and in assay [2] was less than 100 nM in each case.
